These results are taken from patent US5585380A, “Modulation of cellular response to external stimuli” (priority 1995, dated 1996).

In experiment [1] the test system is PA and DAG levels in human glomerular mesangial cells. The experiment is described as follows: Invention assay: HPLC of lipids from IL-1-stimulated mesangial cells. Type of experiment: cell-based. The procedure: The compounds of Formula I are shown to modulate the effects of primary stimuli which elevate levels of the relevant subspecies of PA and DAG using the assay system of the invention. In general for the assay, the cells to be tested are first incubated with the primary stimulating agent for various time periods and fixed in ice-cold methanol. The lipids are extracted using, for example, chloroform:methanol 2:1 (v/v), and the extracts are then subjected to HPLC as described by Bursten and Harris, Biochemistry (1991)------. In this method, a Rainin mu-Porasil column is used with a 3:4 hexane:propanol organic carrier and a 1-10% water gradient during the first 10 minutes of separation. Detection of the peaks in the elution pattern is by absorption in the range of ultraviolet which detects isolated double bonds. Thus, the relevant peaks of unsaturated PA and DAG are shown in the elution pattern. It is important to note that the assay method permits discrimination between various forms of PA and DAG so that those relevant to the pathway affected by the compounds of Formula I can be measured directly. Confirmation of the nature of the acyl substituents of these components is accomplished using fast-atom bombardment mass spectroscopy. Thus, the relevant unsaturated (non-arachidonic) PA and DAG subspecies may be detected. The time periods employed are 5-60 seconds after stimulation with the primary stimulus, such as a cytokine. This technique permits assessment of the levels of various lipid components as a function of time.
To test the effect of the compounds of the invention, the candidate compound is included in the initial incubation at various concentrations. Fixing, extraction and HPLC are conducted as above. The effect of the candidate compound is then reflected in a lowering of the relevant PA and DAG levels as compared to the cells without candidate in the control as illustrated hereinbelow.
(§1) Human glomerular mesangial cells were incubated with IL-1 for various time periods of 5-60 seconds and the cells were fixed in ice-cold methanol, and the lipids extracted using chloroform:methanol 2:1 (v/v). It is very important that the fixing/extraction process be conducted quickly so that the decomposition of unstable intermediates is halted.
The extracts were subjected to HPLC on a Rainin mu-Porasil column with a 3:4 hexane:propanol organic carrier and a 1-10% water gradient during the first 10 minutes of separation. The relative concentration of each lipid species is determined using absorption at 206 nm (A206), which follows unsaturated acyl content of lipid species. […] The absolute mass of each lipid species is determined by lisolation of the lipid using a fraction collector, repurification on the HPLC column. […] Protein concentration is determined using the Bradford technique. […]

Experiment [2] deals with phosphatidic acid phosphohydrolase (PAPH). As to the kind of experiment: Invention assay: HPLC of lipids from IL-1-stimulated mesangial cells, PAPH. As to conditions: 0.5 mM; subsequent determinations. Type of experiment: cell-based, human. The procedure:
(§2) This example also illustrates the method of the invention.
as §1
(§3) The extracts were subjected to HPLC on a Rainin mu-Porasil column with a 3:4 hexane:propanol organic carrier and a 1-10% water gradient during the first 10 minutes of separation. The relative concentration of each lipid species is determined using absorption at 206 nm (A206), which follows unsaturated acyl content of lipid species. […] The absolute mass of each lipid species is determined by lisolation of the lipid using a fraction collector, repurification on the HPLC column. Determination of phospholipid phosphorus is as nmoles/mg cellular protein. Protein concentration is determined using the Bradford technique.

The test system of experiment [3] is lyso-PA acyl transferase (LPAAT). The experiment is described as follows: Invention assay: HPLC of lipids from IL-1-stimulated mesangial cells, LPAAT. Type of experiment: cell-based, human. As to conditions: compared with 0.5 mM; subsequent determinations. The procedure:
as §2, §1, §3

Experiment [4] has as its system NIH3T3 cell line (D5C3) transformed with temperature-sensitive v-abl mutant gene. As to the kind of experiment: Blocking transformed phenotype of D5C3 cells. The note with it: 1 mM pentoxifylline; 33° C., 5 days. The experiment is classed as cell-based, murine.
Procedure: An NIH3T3 cell line ([MUT]) provides target cells which were transformed by an activated oncogene. The cells were transformed with a temperature-sensitive v-abl mutant gene. This mutant gene encodes a temperature-sensitive v-abl protein that produces a non-oncogenic product at a non-permissive temperature due to a lack of tyrosine phosphorylation. The cells were incubated at the permissive temperature (33° C.) for 5 days after passage with and without pentoxifylline (1 mM).
Experiment [5] has as its system NIH3T3 murine fibroblast cells transformed with a mutated K-ras. The experiment is described as follows: Growth and soft agar colonies of K-ras transformed NIH3T3 cells in vitro. The experiment is classed as cell-based. As to conditions: concentrations at or greater than 0.5 mM. How it is done: Additionally, NIH3T3 murine fibroblast cells transformed with a mutated K-ras (codon 12 Gly-Val) were tested in vitro and in nude mice.

Experiment [6] relates to SV40 T-antigen-transformed human kidney mesangial cells. As to the kind of experiment: Tritiated thymidine uptake of transformed mesangial cells with rhIL-1 or TNFα. The experiment is classed as cell-based. How it is done:
SV40 T-antigen-transformed human kidney mesangial cells were cultured under standard conditions with rhIL-1 or with TNFα with and without pentoxifylline (PTX). Transformed mesangial cells grow independently of added growth factors, but IL-1 and TNFα are the normal proliferative signals for mesangial cells. As was shown in Example 1, when IL-1 is added to kidney mesangial cells, within 30 seconds LPAAT and PAPH are activated; the effect of both of these enzymes is inhibited by pentoxifylline at 1 mM. In this experiment, the growth of the treated cells was measured using tritiated thymidine uptake.

Experiment [7] relates to human leukemic cell line (Mo7e). The experiment is described as follows: GM-CSF-stimulated colony formation in semisolid medium. Type of experiment: cell-based. As to conditions: rhGM-CSF; colonies counted after 10 days; FIG. 14. The procedure: The human leukemic cell line (Mo7e) is dependent on added granulocyte-macrophage colony-stimulating factor (GM-CSF) for growth. Mo7e cells were cultured in semisolid medium with and without pentoxifylline (PTX) and rhGM-CSF. Colonies were counted 10 days after culture initiation under an inverted microscope. […] PTX thus prevents the up-regulation of activation-associated genes which inhibit proliferation.

The subject of experiment [8] is TNFα transcripts in U937 cells. As to the kind of experiment: Northern blot of TNFα transcripts after LPS induction. Type of experiment: cell-based. The note with it: 1 mM PTX; LPS three hours; FIG. 15.
The subject of experiment [9] is IL-6 transcripts in bone marrow stromal cells. The experiment is described as follows: Northern blot of IL-6 transcripts. Type of experiment: cell-based. As to conditions: three-hour exposure, increasing concentrations; FIG. 16.
For experiment [10], the system named is Steel factor transcripts in marrow stromal cell lines. The experiment is described as follows: Northern blot of Steel factor transcripts. The experiment is classed as cell-based. The note with it: three-hour incubation; passaged or cloned (CDCL) marrow stromal cell lines; FIGS. 17 and 18.
The subject of the next experiment is CD3-positive lymphocytes. As to the kind of experiment: Proliferation of anti-CD3-stimulated CD2-positive cells (thymidine uptake). The note with it: CD2-positive T-cells, adsorbed monoclonal antibody 64.1, harvested after 5 days; IL-1 or TNF failed to reverse; FIG. 21. Type of experiment: cell-based. How it is done: In these experiments, freshly isolated, CD2-positive cells were stimulated by a solid-phase monoclonal antibody to acquire a CD3 phenotype, and then PTX was added. […] The block in proliferation could not be overcome by addition of either tumor necrosis factor (FIGS. 20 and 21) or IL-1 (FIG. 21). […] The cytokines and PTX were added at culture inception and the cells were harvested after 5 days.

Experiment [11] has as its system TNF, IL-2 and IL-2 receptor transcripts in CD3 positive lymphocytes. The experiment is described as follows: Northern blots of CD3 positive lymphocytes in a mixed lymphocyte reaction. The experiment is classed as cell-based.
The test system of experiment [12] is IL-8 encoding mRNA in U937 and THP1 monocytic cell lines. As to the kind of experiment: Northern blot of IL-8 mRNA after lipopolysaccharide or GM-CSF. Type of experiment: cell-based. The note with it: induced by lipopolysaccharide or GM-CSF. How it is done:
The murine fibrosarcoma cell line, L929, was also tested as an indicator for assays of TNF cytotoxicity. Cell growth was assayed by crystal violet staining using optical density as a measure of growth. […] Finally, two monocytic cell lines, U937 and THP1, were used to test the effect of pentoxifylline on the […] of the cytokine IL-8. The cell lines in culture were induced to upregulate IL-8 production by lipopolysaccharide or GM-CSF.

The subject of a further experiment is T cell proliferation. As to conditions: Singer et al., cited from earlier work.
The subject of experiment [13] is HLA-DR, CD71, CD25 and CD69 on MLR-stimulated lymphocytes. The note with it: Singer et al.; cited from earlier work.
The subject of another experiment is TNFα. The note with it: Singer et al.; cited from earlier work.

Turning to `CC(=O)CCCCn1c(=O)c2c(ncn2C)n(C)c1=O` [Pentoxifylline], in experiment [1] (100 μM pentoxifylline, 10^-11 M IL-1, 15- and 60-second points), the “cyclical formation of PA and conversion of PA to DAG (HPLC)” value is listed as “no change”. For the same compound, the “conversion of PA to DAG (HPLC)” value in experiment [1] (500 μM pentoxifylline, IL-1, 15 second time point) is reported as “slight attenuation”. For the same compound, in [1] (1 mM PTX, all time points (15-60 seconds)), the “elevation of PA and DAG by IL-1 (HPLC)” value is “abolishes the elevation of PA and DAG”. Besides, the “inhibition of PAPH” value in [2] was “inhibits PAPH”. Further, in experiment [3], the “inhibitory effect on LPAAT” value is recorded as “evident only at higher concentrations”. Further, the appearance of cells entry in experiment [4] is listed as “predominantly non-transformed, fibroblastic appearance”. Besides, in experiment [5], the “anchorage-independent growth in soft agar” value is on record as “suppression of anchorage-independent growth” and the growth in vitro entry is “inhibition of growth”. Besides, in [6] (TNFα, FIG. 13B), the “proliferative effect of TNF (thymidine uptake)” value is on record as “enhances the proliferative effect of TNF”. Also, the “growth stimulated by IL-1 (thymidine uptake)” value in [6] (rhIL-1, FIG. 13A) is on record as “arrested growth”. Further, the “GM-CSF-stimulated growth of colonies” value in experiment [7] is “enhanced GM-CSF-stimulated growth of colonies”. Moreover, the “TNF RNA in response to LPS stimulation” value in experiment [8] was “undetectable level”. In addition, in experiment [9], the “production of IL-6 transcripts” value is listed as “increased production of IL-6 transcripts”. In addition, the “levels of Steel factor transcripts” value in experiment [10] is on record as “increases”. The thymidine uptake entry in the experiment on CD3-positive lymphocytes is “diminished by PTX in an concentration-dependent manner”. The TNF transcripts entry in [11] (FIG. 19A) was “suppression”. In addition, in experiment [11] (FIG. 19C), the IL-2 receptor transcripts result is recorded as “suppression”. Moreover, in experiment [12], the “synthesis of IL-8 (mRNA)” value was “did not inhibit, and indeed may upregulate”. Besides, the “proliferative response in a mixed lymphocyte culture” value in the experiment with T cell proliferation (PTX added after triggering lymphocytes) was “still effective in blocking a proliferative response”. The “proliferation of lymphocytes induced by anti-CD3” value in the experiment with T cell proliferation (exogenous recombinant TNF or IL-1 did not reverse) is given as “suppressed proliferation”. The “expression of cell surface antigens HLA-DR, CD71, CD25, CD69” value in [13] is given as “decreased expression”. In addition, the “effect on secretion of TNFα versus TNF transcription” value in the experiment on TNFα is given as “greater effect on secretion of TNFα”.
